The structures appear in SMILES notation.

Assay in all cases: biochemical
What all share (parameters): Eurofins recombinant human kinase profiling, remaining kinase activity as % of control, 10 uM ATP
Conditions in all cases: ATP 10 uM; read-out: %Ctrl@10 μM

For one test, the target named is SRMS(h) (Homo sapiens, UniProt Q9H3Y6). The method, boiled down: (§1)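 Activity measured in a commercial panel of 401 recombinant human protein kinases run as a kinase profiling service.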
For another test, the target named is T1, GSK3α(h) (Homo sapiens, UniProt P49840).
T1 construct: gene GSK3A
T1 sequence (P49840 whole entry): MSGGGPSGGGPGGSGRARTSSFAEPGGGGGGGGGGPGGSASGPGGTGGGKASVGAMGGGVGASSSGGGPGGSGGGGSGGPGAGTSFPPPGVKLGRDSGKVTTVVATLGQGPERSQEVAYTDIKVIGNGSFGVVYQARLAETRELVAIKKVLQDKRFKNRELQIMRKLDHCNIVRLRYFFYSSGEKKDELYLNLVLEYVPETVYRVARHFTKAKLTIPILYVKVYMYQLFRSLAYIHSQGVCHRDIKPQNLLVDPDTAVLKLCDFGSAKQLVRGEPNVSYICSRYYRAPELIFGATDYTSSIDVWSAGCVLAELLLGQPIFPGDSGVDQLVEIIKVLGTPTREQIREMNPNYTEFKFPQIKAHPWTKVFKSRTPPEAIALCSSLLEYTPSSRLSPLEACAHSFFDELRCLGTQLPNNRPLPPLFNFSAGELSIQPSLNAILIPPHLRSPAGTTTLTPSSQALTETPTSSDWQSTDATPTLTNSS
The method, boiled down: as §1

The next test deals with T2, MEKK3(h) (Homo sapiens, UniProt Q99759).
T2 construct: gene MAP3K3
The method, boiled down: as §1

In a further test the target is T3, SIK(h) (Homo sapiens, UniProt P57059).
T3 construct: gene SIK1
The method, boiled down: as §1

The target of another test is PAK3(h) (Homo sapiens, UniProt O75914). Put shortly: as §1
Sequence of PAK3(h) (O75914 whole entry): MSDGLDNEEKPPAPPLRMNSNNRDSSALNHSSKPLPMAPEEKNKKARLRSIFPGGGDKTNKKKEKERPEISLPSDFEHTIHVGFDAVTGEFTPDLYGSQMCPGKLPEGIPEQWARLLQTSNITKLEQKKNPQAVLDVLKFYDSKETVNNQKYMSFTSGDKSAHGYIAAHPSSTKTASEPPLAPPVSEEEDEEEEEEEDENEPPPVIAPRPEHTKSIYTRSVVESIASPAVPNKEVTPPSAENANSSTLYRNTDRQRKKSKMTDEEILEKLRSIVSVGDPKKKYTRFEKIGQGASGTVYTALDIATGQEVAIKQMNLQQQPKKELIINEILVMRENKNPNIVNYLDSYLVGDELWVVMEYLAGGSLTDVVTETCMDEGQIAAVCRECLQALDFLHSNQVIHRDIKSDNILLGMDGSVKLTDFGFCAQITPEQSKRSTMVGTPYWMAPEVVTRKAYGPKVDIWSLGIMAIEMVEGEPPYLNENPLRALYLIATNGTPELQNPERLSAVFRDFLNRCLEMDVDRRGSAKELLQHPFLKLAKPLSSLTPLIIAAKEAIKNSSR
The target of a further test is FGFR2(h) (Homo sapiens, UniProt P21802). The method, boiled down: as §1
In another test the target is BrSK2(h) (Homo sapiens, UniProt Q8IWQ3). Put shortly:
as §1

The target in the next test is EphA1(h) (Homo sapiens, UniProt P21709). The method, boiled down:
as §1

The target of another test is IRAK1(h) (Homo sapiens, UniProt P51617). The method, boiled down: as §1
Sequence of IRAK1(h) (P51617 whole entry): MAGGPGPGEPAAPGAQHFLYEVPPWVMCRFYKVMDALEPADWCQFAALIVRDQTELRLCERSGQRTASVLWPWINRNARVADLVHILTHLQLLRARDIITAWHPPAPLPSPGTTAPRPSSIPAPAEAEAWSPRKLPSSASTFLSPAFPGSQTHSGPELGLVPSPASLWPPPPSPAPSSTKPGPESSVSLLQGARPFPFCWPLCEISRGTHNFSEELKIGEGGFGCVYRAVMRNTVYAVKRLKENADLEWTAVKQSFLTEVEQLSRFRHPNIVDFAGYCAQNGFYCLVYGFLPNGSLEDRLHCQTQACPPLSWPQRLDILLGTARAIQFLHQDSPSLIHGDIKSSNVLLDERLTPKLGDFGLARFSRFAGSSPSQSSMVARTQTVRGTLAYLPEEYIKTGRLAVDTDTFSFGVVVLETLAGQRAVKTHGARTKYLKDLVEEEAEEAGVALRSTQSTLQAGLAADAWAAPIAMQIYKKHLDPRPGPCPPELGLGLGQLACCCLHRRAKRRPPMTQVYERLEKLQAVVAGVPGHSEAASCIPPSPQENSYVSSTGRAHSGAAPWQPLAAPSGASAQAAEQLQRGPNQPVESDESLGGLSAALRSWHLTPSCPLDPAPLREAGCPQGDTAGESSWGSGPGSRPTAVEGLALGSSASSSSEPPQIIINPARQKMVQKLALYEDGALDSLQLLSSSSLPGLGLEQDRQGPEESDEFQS
A further test has as its target T4, IKKα(h) (Homo sapiens, UniProt O15111).
T4 construct: gene CHUK
Put shortly:
as §1

In another test the target is EGFR(h) (Homo sapiens, UniProt P00533). Put shortly:
as §1

Another test has as its target MuSK(h) (Homo sapiens, UniProt O15146). Put shortly:
as §1

The target in the next test is HIPK3(h) (Homo sapiens, UniProt Q9H422). The method, boiled down:
as §1

Another test has as its target T5, AMPKα1(h) (Homo sapiens, UniProt Q13131).
T5 construct: gene PRKAA1
Put shortly: as §1

The next test concerns the target T6, CHK1(h) (Homo sapiens, UniProt O14757).
T6 construct: gene CHEK1
The method, boiled down: as §1

Test [1] deals with T7, PI3 Kinase (p110(E545K)/p85)(h) (Homo sapiens, UniProt P42336, E545K).
T7 construct: gene PIK3CA
Put shortly: as §1

In the next test the target is mTOR(h) (Homo sapiens, UniProt P42345). The method, boiled down:
as §1

The target in another test is T8, MST3(h) (Homo sapiens, UniProt Q9Y6E0).
T8 construct: gene STK24
T8 sequence (Q9Y6E0 whole entry): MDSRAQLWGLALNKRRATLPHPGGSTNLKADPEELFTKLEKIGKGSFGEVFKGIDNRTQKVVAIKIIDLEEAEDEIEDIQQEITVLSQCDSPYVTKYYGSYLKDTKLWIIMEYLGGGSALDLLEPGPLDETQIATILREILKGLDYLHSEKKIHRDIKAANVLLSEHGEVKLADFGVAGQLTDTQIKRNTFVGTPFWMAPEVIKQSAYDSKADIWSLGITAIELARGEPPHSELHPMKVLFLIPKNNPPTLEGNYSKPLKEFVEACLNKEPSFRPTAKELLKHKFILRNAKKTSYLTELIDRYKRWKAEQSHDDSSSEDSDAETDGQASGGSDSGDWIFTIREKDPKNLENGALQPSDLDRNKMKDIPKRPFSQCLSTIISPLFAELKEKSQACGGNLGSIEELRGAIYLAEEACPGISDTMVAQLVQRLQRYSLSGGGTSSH
Put shortly:
as §1

A further test has as its target TTK(h) (Homo sapiens, UniProt P33981). The method, boiled down:
as §1

A further test addresses T9, ALK4(h) (Homo sapiens, UniProt P36896).
T9 construct: gene ACVR1B
The method, boiled down: as §1

In a further test the target is Tec(h) activated (Homo sapiens, UniProt P42680). The method, boiled down: as §1
Sequence of Tec(h) activated (P42680 whole entry): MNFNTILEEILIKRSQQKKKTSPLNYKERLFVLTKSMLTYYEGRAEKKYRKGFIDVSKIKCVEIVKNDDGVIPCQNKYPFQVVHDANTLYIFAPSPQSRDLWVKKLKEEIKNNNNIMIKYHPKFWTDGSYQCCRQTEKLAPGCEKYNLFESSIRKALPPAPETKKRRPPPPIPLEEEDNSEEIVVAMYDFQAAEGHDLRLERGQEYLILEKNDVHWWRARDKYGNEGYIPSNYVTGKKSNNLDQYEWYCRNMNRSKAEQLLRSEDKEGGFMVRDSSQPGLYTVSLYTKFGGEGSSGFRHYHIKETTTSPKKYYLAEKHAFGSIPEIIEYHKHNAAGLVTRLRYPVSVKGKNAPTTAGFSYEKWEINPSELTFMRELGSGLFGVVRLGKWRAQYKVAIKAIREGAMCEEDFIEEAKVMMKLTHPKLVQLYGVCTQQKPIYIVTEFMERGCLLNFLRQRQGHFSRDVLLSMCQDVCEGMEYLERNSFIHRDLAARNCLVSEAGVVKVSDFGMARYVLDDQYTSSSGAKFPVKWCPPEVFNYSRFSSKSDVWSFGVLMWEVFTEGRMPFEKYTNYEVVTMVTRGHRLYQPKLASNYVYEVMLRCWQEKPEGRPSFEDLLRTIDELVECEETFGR
The target in another test is T10, cKit(V560G)(h) (Homo sapiens, UniProt P10721, V560G).
T10 construct: gene KIT
The method, boiled down: as §1

For another test, the target named is Hck(h) (Homo sapiens, UniProt P08631). Put shortly:
as §1

T5 sequence (Q13131 whole entry): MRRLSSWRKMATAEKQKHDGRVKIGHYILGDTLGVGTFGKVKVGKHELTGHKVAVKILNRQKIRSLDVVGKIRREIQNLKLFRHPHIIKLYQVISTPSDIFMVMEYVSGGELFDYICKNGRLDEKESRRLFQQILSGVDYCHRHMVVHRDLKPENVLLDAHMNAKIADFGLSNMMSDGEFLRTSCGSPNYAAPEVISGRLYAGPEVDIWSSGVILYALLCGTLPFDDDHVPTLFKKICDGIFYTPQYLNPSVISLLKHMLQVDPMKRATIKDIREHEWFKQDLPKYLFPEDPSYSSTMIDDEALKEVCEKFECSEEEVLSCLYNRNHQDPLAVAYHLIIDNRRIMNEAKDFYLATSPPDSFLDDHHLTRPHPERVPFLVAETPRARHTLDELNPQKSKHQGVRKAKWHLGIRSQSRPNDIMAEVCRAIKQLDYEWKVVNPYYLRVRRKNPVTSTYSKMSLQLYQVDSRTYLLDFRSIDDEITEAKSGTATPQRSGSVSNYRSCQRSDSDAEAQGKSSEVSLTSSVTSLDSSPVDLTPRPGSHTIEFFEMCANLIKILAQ
T5 sequence (P54619 whole entry partner): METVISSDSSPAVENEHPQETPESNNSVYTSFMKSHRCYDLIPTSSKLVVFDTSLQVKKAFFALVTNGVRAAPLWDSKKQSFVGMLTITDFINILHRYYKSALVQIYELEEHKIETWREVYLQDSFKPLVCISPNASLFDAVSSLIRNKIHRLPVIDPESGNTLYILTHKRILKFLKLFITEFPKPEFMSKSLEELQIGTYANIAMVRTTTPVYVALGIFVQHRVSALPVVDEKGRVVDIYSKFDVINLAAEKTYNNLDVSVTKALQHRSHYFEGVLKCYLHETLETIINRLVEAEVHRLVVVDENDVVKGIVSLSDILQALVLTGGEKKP
T5 sequence (Q9Y478 whole entry partner): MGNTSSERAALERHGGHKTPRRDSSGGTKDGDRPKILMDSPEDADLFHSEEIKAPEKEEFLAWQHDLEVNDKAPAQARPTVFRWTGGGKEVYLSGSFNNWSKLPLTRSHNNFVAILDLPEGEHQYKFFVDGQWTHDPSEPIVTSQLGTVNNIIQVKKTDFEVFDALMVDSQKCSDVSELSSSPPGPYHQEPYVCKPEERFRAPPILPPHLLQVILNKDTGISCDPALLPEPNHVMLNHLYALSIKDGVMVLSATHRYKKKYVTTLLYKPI
T9 sequence (P36896 whole entry): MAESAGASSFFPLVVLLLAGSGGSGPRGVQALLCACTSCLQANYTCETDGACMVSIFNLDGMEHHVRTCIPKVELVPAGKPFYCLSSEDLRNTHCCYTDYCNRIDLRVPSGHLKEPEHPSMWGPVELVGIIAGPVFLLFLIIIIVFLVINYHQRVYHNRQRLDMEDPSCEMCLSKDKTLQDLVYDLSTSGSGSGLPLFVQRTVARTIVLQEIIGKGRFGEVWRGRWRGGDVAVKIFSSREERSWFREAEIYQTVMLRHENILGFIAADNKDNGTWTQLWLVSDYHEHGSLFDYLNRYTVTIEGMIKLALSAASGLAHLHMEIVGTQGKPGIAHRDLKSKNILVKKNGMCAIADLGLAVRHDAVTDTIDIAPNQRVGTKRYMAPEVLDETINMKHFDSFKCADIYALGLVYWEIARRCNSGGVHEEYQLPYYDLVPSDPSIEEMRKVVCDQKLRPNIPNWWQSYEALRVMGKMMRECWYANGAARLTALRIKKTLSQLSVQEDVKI
T6 sequence (O14757 whole entry): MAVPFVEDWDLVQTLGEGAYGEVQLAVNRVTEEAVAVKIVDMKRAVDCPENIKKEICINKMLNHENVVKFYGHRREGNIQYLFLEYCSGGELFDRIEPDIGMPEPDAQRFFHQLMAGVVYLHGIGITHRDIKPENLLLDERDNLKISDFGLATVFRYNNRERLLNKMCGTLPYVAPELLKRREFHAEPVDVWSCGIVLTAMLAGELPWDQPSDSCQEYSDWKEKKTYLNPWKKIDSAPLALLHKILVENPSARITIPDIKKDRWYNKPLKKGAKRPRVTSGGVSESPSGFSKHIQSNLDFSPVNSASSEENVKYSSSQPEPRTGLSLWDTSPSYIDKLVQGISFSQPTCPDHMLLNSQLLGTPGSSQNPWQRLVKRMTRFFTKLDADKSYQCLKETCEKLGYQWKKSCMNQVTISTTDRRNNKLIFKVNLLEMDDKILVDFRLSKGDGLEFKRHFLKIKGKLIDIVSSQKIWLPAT

For the molecule `C1=C(c2nc(-c3cnn(C4CCNCC4)c3)cn3cc(-c4ccccc4)nc23)CCOC1` [YL-939], the remaining activity at 10 µM at SRMS(h) is 122%; on GSK3α(h), 119%; at MEKK3(h), 108%; at SIK(h), 100%; on PAK3(h) it was 70%; at FGFR2(h) it was 95%. Moreover, the remaining activity at 10 µM on BrSK2(h) is 101%; on EphA1(h), 109%; at IRAK1(h), 118%; on IKKα(h) it was 92%; on EGFR(h) it was 87%; at MuSK(h), 88%. For the same molecule, the remaining activity at 10 µM stood at 86% on HIPK3(h); 90% on AMPKα1(h); 98% at CHK1(h); 95% in [1]; 91% on mTOR(h); 97% on MST3(h). The remaining activity at 10 µM at TTK(h) worked out at 102%; at ALK4(h) it was 117%; at Tec(h) activated, 70%; at cKit(V560G)(h) it was 88%; on Hck(h), 98%.
